Results from patent US7569711B2, “Enone cancer therapeutics” (Cornell Univeristy, priority 2002, dated 2009).
Like-named read-outs stand apart in the source and are kept apart here.

Tests used:
[1] = system: murine and human tumors in culture; details: range of different murine and human tumors in culture; read-out: IC50 antitumor activity; cited from earlier work
hGSTP1-1 = molecular target: T1, hGSTP1-1 (Homo sapiens, UniProt P09211); test: initial rates of reaction with hGSTP1-1 (substrate kinetics); format: biochemical; details: pH 6.5, [GSH]=1 mM, 25° C.; estimated
T1 construct: purchased Sigma Chemical Company; host or cells: human placenta
Description: Initial rates of reaction of 1a and 1b with hGSTP1-1 were determined from reciprocal plots of initial velocities (ΔOD235/min), versus [substrate] in buffered solution at pH 6.5, with [GSH]=1 mM (25° C.). Under those conditions, the enzyme-catalyzed GSH addition became rate determining (<0.01 units of transferase in the assay cuvettes).

human erythrocyte GlxI [2] = molecular target: T2, human erythrocyte GlxI (Homo sapiens, UniProt Q04760); details: competitive; previously reported; read-out: dissociation constant Ki; cited from earlier work
T2 construct: Kinetic studies with human erythrocyte GlxI; from tissue; host or cells: human erythrocytes
T2 sequence (Q04760 2-184 limits assumed): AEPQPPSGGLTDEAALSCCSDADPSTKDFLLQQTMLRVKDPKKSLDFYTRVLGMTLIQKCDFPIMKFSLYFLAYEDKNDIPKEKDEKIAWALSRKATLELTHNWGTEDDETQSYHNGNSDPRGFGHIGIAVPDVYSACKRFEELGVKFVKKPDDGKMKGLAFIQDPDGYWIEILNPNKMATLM

human erythrocyte GlxI [3] = molecular target: T2, human erythrocyte GlxI; test: kinetic studies with human erythrocyte GlxI (competitive inhibition); format: biochemical; details: sodium phosphate buffer, pH 7.0, 25° C., read-out: dissociation constant Ki
Description: In each kinetic run, the concentration of free GSH was maintained at 0.2 mM by varying the total concentration of GSH and methylglyoxal on the basis of the dissociation constant of the hemithioacetal (Kdiss=2.2 mM). Conditions: 50 mM phosphate buffer, pH 7.0, 25° C.
To investigate the mechanism of formation of 2b, the nonenzymatic reaction of 1b with GSH was monitored spectrophotometrically, and followed a simple first-order decay (FIG. 2, trace A). No intermediate species was detectable. However, in the presence of human placental glutathione transferase (GSTP 1-1) (Predominantly the pi or P1-1 isoform, purchased from Sigma Chemical Company. Salts and free GSH were removed by ultrafiltration. Units of transferase activity were determined using 1-chloro-2,4-dinitrobenzene as substrate (Mannervik, B.; Danielson, U. H. CRC Critical Reviews in Biochemistry 1988, 23, 283-337). The reaction rate profile conformed to a double exponential decay, composed of a rapid, enzyme-dependent, initial phase involving 1b followed by a slower enzyme-independent first-order phase (FIG. 2, traces B and C).

T1 sequence (P09211 2-210 limits assumed): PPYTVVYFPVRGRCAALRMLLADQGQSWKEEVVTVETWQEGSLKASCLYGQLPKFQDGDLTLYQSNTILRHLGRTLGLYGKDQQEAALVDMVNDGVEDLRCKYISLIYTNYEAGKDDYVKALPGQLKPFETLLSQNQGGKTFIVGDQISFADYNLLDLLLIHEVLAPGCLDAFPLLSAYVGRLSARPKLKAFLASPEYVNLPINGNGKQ

C/C=C/C(=O)OCC1=C[C@@H](O)[C@@H](O)[C@@H](O)C1=O [Compound 1a, 2-crotonyloxymethyl-(4R, 5R, 6R)-4,5,6-trihydroxy-2-cyclohexenone]
IC50 [1]: 3 to 44 µM
kcat/Km, fold lower than that of 1b (hGSTP1-1): ~8.3 fold

NC(CCC(=O)NC(CSCC1=CC(O)C(O)C(O)C1=O)C(=O)NCC(=O)O)C(=O)O (stereo not shown) [Compound 2a]
Ki (human erythrocyte GlxI [2]): 183 ± 6 µM

N[C@@H](CCC(=O)N[C@@H](CSCC1=CCCCC1=O)C(=O)NCC(=O)O)C(=O)O [Compound 2b]
Ki (human erythrocyte GlxI [3]): 107 ± 0.1 µM
